Where a name gives a salt, the structure may show the parent alone. Read-outs that look alike come from different tables or passages of the source.
Molecular target: T1, hNaV1.7 (Homo sapiens, UniProt Q15858)
T1 construct: expressed in transfected cells
Assay: Patch voltage clamp electrophysiology (EP), Syncropatch 384PE, Nav1.7 in CHO cells;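 further: Nav1.7 stably expressed from cDNA in CHO cells, holding potential of −50 mV kept for the entire experiment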
Format: cell-based
Details: holding potential −50 mV, inhibition based on 7.5 min compound incubation

T1 sequence (Q15858 1-1977 isoform Q15858-3): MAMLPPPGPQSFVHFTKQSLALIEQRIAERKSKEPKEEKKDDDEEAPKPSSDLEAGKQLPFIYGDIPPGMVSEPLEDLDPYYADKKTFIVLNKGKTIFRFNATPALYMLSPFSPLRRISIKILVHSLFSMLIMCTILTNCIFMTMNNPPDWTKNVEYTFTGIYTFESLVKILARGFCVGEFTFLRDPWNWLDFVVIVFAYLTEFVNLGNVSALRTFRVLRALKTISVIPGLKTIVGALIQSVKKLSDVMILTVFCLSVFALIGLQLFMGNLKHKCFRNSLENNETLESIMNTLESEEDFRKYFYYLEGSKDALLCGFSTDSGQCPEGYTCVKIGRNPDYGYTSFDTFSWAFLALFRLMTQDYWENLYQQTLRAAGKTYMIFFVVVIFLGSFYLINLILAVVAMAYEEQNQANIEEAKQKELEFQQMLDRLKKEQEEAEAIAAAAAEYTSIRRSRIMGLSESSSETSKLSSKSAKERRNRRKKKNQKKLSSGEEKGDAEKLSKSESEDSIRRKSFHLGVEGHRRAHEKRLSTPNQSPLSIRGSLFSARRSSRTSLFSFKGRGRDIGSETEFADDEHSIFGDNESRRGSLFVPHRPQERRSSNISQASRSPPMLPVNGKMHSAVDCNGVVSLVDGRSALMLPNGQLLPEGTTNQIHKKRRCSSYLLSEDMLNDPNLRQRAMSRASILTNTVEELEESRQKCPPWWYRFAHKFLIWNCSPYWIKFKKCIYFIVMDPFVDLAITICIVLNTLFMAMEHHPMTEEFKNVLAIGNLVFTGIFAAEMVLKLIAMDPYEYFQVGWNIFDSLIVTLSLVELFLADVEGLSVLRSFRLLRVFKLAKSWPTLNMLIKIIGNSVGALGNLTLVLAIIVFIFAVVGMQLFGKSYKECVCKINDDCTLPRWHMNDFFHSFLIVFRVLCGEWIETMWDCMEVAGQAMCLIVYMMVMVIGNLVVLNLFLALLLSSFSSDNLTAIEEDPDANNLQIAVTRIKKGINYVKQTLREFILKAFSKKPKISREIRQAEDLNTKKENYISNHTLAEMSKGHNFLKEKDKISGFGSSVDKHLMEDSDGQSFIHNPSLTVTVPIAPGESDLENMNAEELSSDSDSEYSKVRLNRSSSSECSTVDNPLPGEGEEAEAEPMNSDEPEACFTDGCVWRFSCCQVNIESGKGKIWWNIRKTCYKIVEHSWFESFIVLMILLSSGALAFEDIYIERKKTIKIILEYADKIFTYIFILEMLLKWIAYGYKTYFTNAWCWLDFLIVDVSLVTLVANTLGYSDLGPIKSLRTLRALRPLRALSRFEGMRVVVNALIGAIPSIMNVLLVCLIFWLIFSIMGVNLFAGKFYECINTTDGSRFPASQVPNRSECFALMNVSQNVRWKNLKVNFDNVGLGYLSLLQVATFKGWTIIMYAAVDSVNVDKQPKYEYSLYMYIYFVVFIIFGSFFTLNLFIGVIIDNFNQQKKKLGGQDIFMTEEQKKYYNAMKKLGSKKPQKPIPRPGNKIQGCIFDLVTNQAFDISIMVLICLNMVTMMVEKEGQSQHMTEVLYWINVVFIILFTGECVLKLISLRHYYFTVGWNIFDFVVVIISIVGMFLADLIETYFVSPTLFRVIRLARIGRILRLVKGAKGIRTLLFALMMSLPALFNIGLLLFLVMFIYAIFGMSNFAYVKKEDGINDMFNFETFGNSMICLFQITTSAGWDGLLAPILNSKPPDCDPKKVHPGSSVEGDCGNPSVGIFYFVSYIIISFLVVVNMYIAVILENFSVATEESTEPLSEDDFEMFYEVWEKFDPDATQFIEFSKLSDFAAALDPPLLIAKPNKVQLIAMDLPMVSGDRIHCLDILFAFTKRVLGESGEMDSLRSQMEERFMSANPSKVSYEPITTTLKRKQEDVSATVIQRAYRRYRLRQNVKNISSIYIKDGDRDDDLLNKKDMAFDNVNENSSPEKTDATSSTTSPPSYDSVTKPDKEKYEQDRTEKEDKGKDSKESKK

Row | Structure (SMILES) | IC50 (read-out: hNaV1.7 EP_SP) [nM] | IC50 (hNaV1.7 EP_SP) [nM]
1 | CC(C)COc1cc(F)c(C(=O)NS(=O)(=O)N2CCC(OC3CN(C)C3)CC2)cc1C1CC1 [Example 237, 5-cyclopropyl-2-fluoro-4-isobutoxy-N-((4-((1-methylazetidin-3-yl)oxy)piperidin-1-yl)sulfonyl)benzamide formic acid] | 50 | 
2 | COc1ccc2nc(NS(=O)(=O)c3ccc(N[C@H]4CCCC[C@@H]4N(C)C)cc3F)sc2c1 [Example 201, 4-(((1S,2S)-2-(dimethylamino)cyclohexyl)amino)-2-fluoro-N-(6-methoxybenzo[d]thiazol-2-yl)benzenesulfonamide] | 370 | 
3 | O=C(NS(=O)(=O)c1ccc(NC2CCCCC2)cc1F)c1cc(Cl)c(OCC2CCCC2)cc1F [Example 208, 5-chloro-N-((4-(cyclohexylamino)-2-fluorophenyl)sulfonyl)-4-(cyclopentylmethoxy)-2-fluorobenzamide] | 880 | 
4 | O=C(NS(=O)(=O)[C@@H]1C[C@H]1c1ccccc1)c1cc(Cl)c(OCC2CCCC2)cc1F (relative stereo) [Example 284, 5-chloro-4-(cyclopentylmethoxy)-2-fluoro-N-((trans-2-phenylcyclopropyl)sulfonyl)benzamide] | 120 | 
5 | O=C(NS(=O)(=O)c1ccc(OCC2CCCN2)cc1)c1cc(Cl)c(OCC2CCCC2)cc1F (stereo not shown) [Example 305, 5-chloro-4-(cyclopentylmethoxy)-2-fluoro-N-((4-(pyrrolidin-2-ylmethoxy)phenyl)sulfonyl)benzamide] | 360 | 
6 | O=C(NS(=O)(=O)c1cc(Cl)ccc1F)c1cc(Cl)c(OCC2CCCC2)cc1F [Example 80, 5-chloro-N-((5-chloro-2-fluorophenyl)sulfonyl)-4-(cyclopentylmethoxy)-2-fluorobenzamide] | 700 | 
7 | COc1cc(F)c(C(=O)NS(=O)(=O)c2ccc(O[C@H]3CC[C@H](c4cccc(C(F)(F)F)c4)C[C@@H]3N(C)C)cc2F)cc1C1CC1 [Example 74, 5-cyclopropyl-N-((4-(((1S,2S,4S)-2-(dimethylamino)-4-(3-(trifluoro-methyl)phenyl)cyclohexyl)oxy)-2-fluorophenyl)sulfonyl)-2-fluoro-4-methoxybenzamide] | 5.5 | 
8 | O=C(NS(=O)(=O)N1CCC(OC2CN(CC(F)(F)F)C2)CC1)c1cc(Cl)c(OCC2CCCC2)cc1F [Example 13, 5-chloro-4-(cyclopentylmethoxy)-2-fluoro-N-((4-((1-(2,2,2-trifluoroethyl)azetidin-3-yl)oxy)piperidin-1-yl)sulfonyl)benzamide] | 240 | 
9 | O=C(NS(=O)(=O)c1ccc2ccccc2c1)c1cc(Cl)c(OCC2CCCC2)cc1F [Example 290, 5-chloro-4-(cyclopentylmethoxy)-2-fluoro-N-(naphthalen-2-ylsulfonyl)benzamide] | 760 | 
10 | O=C(NS(=O)(=O)N1CCCC1)c1cc(Cl)c(OCC2CCCC2)cc1F [Example 22, 5-chloro-4-(cyclopentylmethoxy)-2-fluoro-N-(pyrrolidin-1-ylsulfonyl)-benzamide] | 9.1 | 
11 | CN1CC(OC2CCN(S(=O)(=O)NC(=O)c3cc(C4CC4)c(OCC4CCCC4)cc3F)CC2)C1 [Example 4, 4-(cyclopentylmethoxy)-5-cyclopropyl-2-fluoro-N-((4-((1-methylazetidin-3-yl)oxy)piperidin-1-yl)sulfonyl) benzamide] | 15 | 
12 | CO[C@H]1CC[C@@H](S(=O)(=O)NC(=O)c2cc(Cl)c(OCC3CCCC3)cc2F)CC1 [Example 87, cis-5-chloro-4-(cyclopentylmethoxy)-2-fluoro-N-((4-methoxycyclohexyl)sulfonyl)benzamide] | 390 | 
13 | O=C(NS(=O)(=O)c1ccc2c(c1)NCC2)c1cc(Cl)c(OCC2CCCC2)cc1F [Example 282, 5-chloro-4-(cyclopentylmethoxy)-2-fluoro-N-(indolin-6-ylsulfonyl)benzamide] | 760 | 
14 | Cc1ccccc1S(=O)(=O)NC(=O)c1cc(Cl)c(OCC2CCCC2)cc1F [Example 242, 5-chloro-4-(cyclopentylmethoxy)-2-fluoro-N-(o-tolylsulfonyl)benzamide] | 110 | 
15 | NC1CN(S(=O)(=O)NC(=O)c2cc(Cl)c(OCC3CCCC3)cc2F)C1 [Example 233, N-((3-aminoazetidin-1-yl)sulfonyl)-5-chloro-4-(cyclopentylmethoxy)-2-fluorobenzamide] | 870 | 
16 | COc1ccc(F)cc1-c1nccc2cc(S(=O)(=O)NC(=O)c3cc(Cl)c(OCC4CCCC4)cc3F)ccc12 [Example 72, 5-chloro-4-(cyclopentylmethoxy)-2-fluoro-N-((1-(5-fluoro-2-methoxy-phenyl)isoquinolin-6-yl)sulfonyl)benzamide] | 340 | 
17 | O=C(NS(=O)(=O)c1ccccc1F)c1cc(Cl)c(OCC2CCCC2)cc1F [Example 241, 5-chloro-4-(cyclopentylmethoxy)-2-fluoro-N-((2-fluorophenyl)sulfonyl)benzamide] | 65 | 
18 | C[C@H]1C[C@@H]1S(=O)(=O)NC(=O)c1cc(Cl)c(OCC2CCCC2)cc1F (single isomer, unassigned) [Example 250] | 9.8 | 
19 | Cc1cc(C)cc(COc2ccc(S(=O)(=O)NC(=O)c3cc(Cl)c(OCC4CCCC4)cc3F)cc2)c1 [Example 303, 5-chloro-4-(cyclopentylmethoxy)-N-((4-((3,5-dimethyl-benzyl)oxy)phenyl)sulfonyl)-2-fluorobenzamide] | 260 | 

Row | Structure (SMILES) | IC50 (read-out: hNaV1.7 EP_SP) [nM] | IC50 (hNaV1.7 EP_SP) [nM]
20 | Cn1cncc1COc1ccc(S(=O)(=O)NC(=O)c2cc(Cl)c(OCC3CCCC3)cc2F)cc1 [Example 316, 5-chloro-4-(cyclopentylmethoxy)-2-fluoro-N-((4-((1-methyl-1H-imidazol-5-yl)methoxy)phenyl)sulfonyl)benzamide] | 28 | 
21 | C[C@@H]1CCCCN1S(=O)(=O)NC(=O)c1cc(Cl)c(OCC2CCCC2)cc1F (single isomer, unassigned) [Example 225] | 10 | 
22 | Cc1cccc(COc2ccc(S(=O)(=O)NC(=O)c3cc(Cl)c(OCC4CCCC4)cc3F)cc2)c1 [Example 260, 5-chloro-4-(cyclopentylmethoxy)-2-fluoro-N-((4-((3-methylbenzyl)oxy)phenyl)sulfonyl)benzamide] | 200 | 
23 | O=C(N[C@@H](C(=O)O)C1CCCCC1)c1cc(Cl)c(OCC2CCCC2)cc1F [Example 107, (R)-2-(5-chloro-4-(cyclopentylmethoxy)-2-fluorobenzamido)-2-cyclohexyl-acetic acid] | 990 | 
24 | O=C(NS(=O)(=O)N1CC(O[C@@H]2CCNC2)C1)c1cc(Cl)c(OCC2CCCC2)cc1F (single isomer, unassigned) [Example 31, 2,2,2-trifluoroacetate] | 390 | 
25 | NC[C@@H]1CN(S(=O)(=O)NC(=O)c2cc(Cl)c(OCC3CCCC3)cc2F)CCO1 (single isomer, unassigned) [Example 24, 2,2,2-trifluoroacetate] | 100 | 
26 | O=C(NS(=O)(=O)N1CCC(O[C@H]2CCNC2)CC1)c1cc(Cl)c(OCC2CCCC2)cc1F (single isomer, unassigned) [Example 37, 2,2,2-trifluoroacetate] | 77 | 
27 | O=S(=O)(Nc1noc2cc(OCC3CCCC3)c(C3CC3)cc12)N1CCC(O[C@@H]2CCNC2)CC1 (single isomer, unassigned) [Example 91, 2,2,2-trifluoroacetate] | 790 | 
28 | NCCCOc1ccc(S(=O)(=O)NC(=O)c2cc(Cl)c(OCC3CCCC3)cc2F)cc1 [Example 314, N-((4-(3-aminopropoxy)phenyl)sulfonyl)-5-chloro-4-(cyclopentylmethoxy)-2-fluorobenzamide] | 310 | 
29 | CN(C)[C@H]1C[C@@H](c2cccc(C(F)(F)F)c2)CC[C@@H]1Oc1ccc(S(=O)(=O)NC(=O)c2cc(C3CC3)ccc2F)c(F)c1 [Example 75, 5-cyclopropyl-N-((4-(((1S,2S,4S)-2-(dimethylamino)-4-(3-(trifluoromethyl)-phenyl)cyclohexyl)oxy)-2-fluorophenyl)sulfonyl)-2-fluorobenzamide] | 120 | 
30 | CN(C)[C@H]1CCCC[C@@H]1Nc1ccc(S(=O)(=O)Nc2nc3ccc(OCC4CCCC4)cc3s2)c(F)c1 [Example 96, N-(6-(cyclopentylmethoxy)benzo[d]thiazol-2-yl)-4-(((1S,2S)-2-(dimethyl-amino)cyclohexyl)-amino)-2-fluorobenzenesulfonamide formate] | 8.8 | 
31 | O=C(NS(=O)(=O)N1CCC(OC2CNC2)CC1)c1cc(C2CC2)c(OCC2CCCC2)cc1F [Example 47, N-((4-(azetidin-3-yloxy)piperidin-1-yl)sulfonyl)-4-(cyclopentylmethoxy)-5-cyclopropyl-2-fluorobenzamide] | 36 | 
32 | CN1CC(OC2CCN(S(=O)(=O)NC(=O)c3cc(C4CCC4)c(OCC4CCCC4)cc3F)CC2)C1 [Example 7, 5-cyclobutyl-4-(cyclopentylmethoxy)-2-fluoro-N-((4-((1-methylazetidin-3-yl)oxy)piperidin-1-yl)sulfonyl)benzamide 2,2,2-trifluoroacetate] | 8 | 
33 | COc1cc(-c2cccc(C(F)(F)F)c2)c(F)cc1N1C(=O)CO[C@H]2CN(S(=O)(=O)Nc3noc4ccc(C5CC5)cc34)CC[C@@H]21 (single isomer, unassigned) [Example 94] |  | 240
34 | COC[C@@H](C)S(=O)(=O)NC(=O)c1cc(Cl)c(OCC2CCCC2)cc1F (single isomer, unassigned) [Example 249] | 110 | 
35 | CO[C@H]1CC[C@H](S(=O)(=O)NC(=O)c2cc(Cl)c(OCC3CCCC3)cc2F)CC1 [Example 86, trans-5-chloro-4-(cyclopentylmethoxy)-2-fluoro-N-((4-methoxycyclohexyl)sulfonyl)benzamide] | 100 | 
36 | O=C(NS(=O)(=O)c1ccc(C(F)(F)F)cc1)c1cc(Cl)c(OCC2CCCC2)cc1F [Example 283, 5-chloro-4-(cyclopentylmethoxy)-2-fluoro-N-((4-(trifluoromethyl)phenyl)sulfonyl)benzamide] | 620 | 
37 | O=C(NS(=O)(=O)c1ccc2c(c1)CCCC2)c1cc(Cl)c(OCC2CCCC2)cc1F [Example 261, 5-chloro-4-(cyclopentylmethoxy)-2-fluoro-N-((5,6,7,8-tetrahydronaphthalen-2-yl)sulfonyl)benzamide] | 530 | 

From patent US20240228463A1, “SODIUM CHANNEL INHIBITORS AND METHODS OF DESIGNING SAME” (Genentech, Inc., priority 2021, published 2024)
